# Data from patent US8750968B2, “Device and procedure for the diagnosis or diagnostic preparation and/or therapy monitoring of inflammatory diseases such as rheumatoid arthritis” (MIVENION GmbH, priority 2007, dated 2014).
# Experiments:
# [1] = test system: activated rheumatoid arthritis; experiment: activity value AKT from ICG fluorescence imaging of both hands, two examinations four weeks apart; type: in vivo, human; conditions: for activity value AKT: current examination vs four weeks before, values less than 1 indicate a decrease in disease activity
# Description: A correction factor (CF) is determined after the calculation of the average AUCRef value above the fingernails. The quotient of the mean AUCRef value and the correction factor (CF) should result in a reference factor (RF) with a value of 100. CF=mean AUCRef/100(RF) 100(RF)=mean AUCRef/CF
# Each of the obtained 28 AUC values of the interphalangeal articulations of the hands is processed by mathematical correlation. By dividing the AUC values by CF, corrected AUC values (AUCcorr) are obtained for the ROI above the respective interphalangeal articulations of the hands. AUCcorr=AUC/CF
# The inventive process is further characterized by the layout of a method that allows the comparison of different examinations on the same patient. This method should compensate the different levels of the fluorescence signal intensity that result from the variable pharmacokinetics of ICG. The correction factor (CF) is calculated for each measurement leading to the formation of the signal intensity curve. Any number or any type of examinations can be assigned to one another by means of the CF of the ROI above the fingernails. Due to the division of the AUCcorr values from an arbitrary examination by CF, they can be directly compared with other AUCcorr values from previous examinations. The equation for calculating an arbitrary examination n is as follows: AUCcorr(n)=AUC(n)/CF(n)
# The value AKT for the time-dependent disease activity results from the possibility of direct comparability of the corrected AUC values. The formula for calculating the activity value AKT of any two examinations over time is as follows: AKT=AUCcorr(n)/AUCcorr(n-1)
# Values greater than 1 point out an increasing disease activity, respectively a deterioration of the result, whereas values less than 1 indicate an enhancement of the result, respectively a decrease in disease activity.
# Methods and implementation: Intravenous injection of indocyanine green (ICG pulsion) at a dose of 0.2 mg/kg. Bolus injection for about 5 s, the measurement time 0 corresponds to the termination of the Injection. Measuring device: simultaneous measurement of both the hands, illumination surface about 20 cm×30 cm, LEDs, excitation wavelength of 775 nm, detection >800 nm (2 long-pass interference filters, each of whose λ50%=800 nm), iCCD camera with standard lens (water/Peltier-type cooling).
# Data collection (image capture) for both the hands up to 10 minutes after the injection with a cycle time of 3 s (20 frames/min). […]
# The activity values AKT are calculated by dividing each of the corrected results of the […] examination by each of the corresponding corrected results of the second examination respectively.
# [2] = test system: activated rheumatoid arthritis; experiment: clinical examination and patient report after four weeks of intensive therapy; type: in vivo, human; conditions: four weeks after start of therapy
# Description: Patient, weight 59 kg. Patient with an acute progression of rheumatoid arthritis and damage to the joints DIP-R3, PIP-R3 and PIP-R4. The patient was examined twice: the current examination as well as four weeks before the current examination. An intensive therapy using Infliximab® was administered upon the diagnosis of an activated rheumatoid arthritis four weeks before the current examination.
substance,measurement,setting,value
Infliximab [Infliximab®],activity value AKT,[1]; joint DIP-R3,0.71
same,activity value AKT,[1]; joint PIP-R3,0.65
same,activity value AKT,[1]; joint printed PIP-84,0.911
same,effectiveness of the ongoing intensified therapy,"[1]; patient, after four weeks of therapy",could be quantitatively demonstrated just after four weeks
same,"subjective perception of the disease (morning stiffness, pain sensations)",[2]; patient report,improvement in the subjective perception of the disease
same,clinical examination result (inflammation of the diseased joints),[2]; patient,essentially unchanged result with only a low-level decline in the inflammation of the diseased joints
